The record followed here is US7709516B2, “Helix 12 directed non-steroidal antiandrogens” (Endorecherche, Inc., priority 2005, dated 2010).

The structures appear in SMILES notation. Like-named read-outs stand apart in the source and are kept apart here.

For assay [1], the system named is Shionogi mouse mammary carcinoma cells. The assay is described as follows: Androgenic/antiandrogenic activity: inhibition of DHT-stimulated Shionogi cell number. To be noted: DHT-stimulated Shionogi cell number; for IC50: Mus musculus; for Shionogi Antiandrogenic Activity IC50: Table 3. The format is cell-based.
For a further assay, the target named is T1, Human Androgen Receptor (Homo sapiens, UniProt P10275).
T1 sequence (P10275 1-920): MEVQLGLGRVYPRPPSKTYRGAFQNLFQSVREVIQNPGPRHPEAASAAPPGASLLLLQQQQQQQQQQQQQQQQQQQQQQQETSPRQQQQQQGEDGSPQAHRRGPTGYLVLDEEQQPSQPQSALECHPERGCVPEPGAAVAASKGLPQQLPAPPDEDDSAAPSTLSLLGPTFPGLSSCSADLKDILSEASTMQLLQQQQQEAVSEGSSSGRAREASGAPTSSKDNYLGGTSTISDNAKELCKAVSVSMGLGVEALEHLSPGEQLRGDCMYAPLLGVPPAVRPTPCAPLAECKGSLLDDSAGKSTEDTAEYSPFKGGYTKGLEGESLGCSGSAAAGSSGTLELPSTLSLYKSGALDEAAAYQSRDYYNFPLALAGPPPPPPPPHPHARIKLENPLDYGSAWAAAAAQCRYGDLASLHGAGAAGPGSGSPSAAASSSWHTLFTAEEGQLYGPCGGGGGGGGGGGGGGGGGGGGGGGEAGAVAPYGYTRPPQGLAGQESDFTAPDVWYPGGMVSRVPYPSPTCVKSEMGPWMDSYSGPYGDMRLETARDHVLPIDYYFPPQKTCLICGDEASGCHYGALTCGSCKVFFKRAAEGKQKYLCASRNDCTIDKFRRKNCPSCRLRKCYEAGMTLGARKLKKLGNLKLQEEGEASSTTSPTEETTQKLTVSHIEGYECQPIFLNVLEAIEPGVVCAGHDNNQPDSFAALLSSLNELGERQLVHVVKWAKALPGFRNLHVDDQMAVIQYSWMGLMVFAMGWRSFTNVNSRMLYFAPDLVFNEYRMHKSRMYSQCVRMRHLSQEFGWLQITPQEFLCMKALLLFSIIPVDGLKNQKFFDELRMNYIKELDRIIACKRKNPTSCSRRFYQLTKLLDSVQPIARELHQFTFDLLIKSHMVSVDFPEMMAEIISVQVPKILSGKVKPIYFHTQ
Kind of assay: Androgen receptor binding assay ([3H]R1881, HAP) in cytosol of HEK-293 cells transfected with hAR. The conditions noted are these: relative to R1881 = 100, transfected cells.

In assay [2] the test system is rat prostate, seminal vesicle, levator ani muscle. Kind of assay: Systemic antiandrogenic activity in orchidectomized immature male rats with DHT implant. The assay is classed as in vivo. The conditions noted are these: rat +DHT, 0.5 mg/animal daily 7 days; for % Inhibition Prostate / % Inhibition Lev.Ani / % Inhibition SV: Table 3; for inhibition in vivo at 0.5 mg: Rattus norvegicus, 168 h, s.c. or p.o. (route not marked).

The test system is the same in assay [3]. The assay is described as follows: Systemic androgenic activity in orchidectomized immature male rats. The assay is classed as in vivo. To be noted: 168 h, 0.2 mg/animal daily 7 days. The text has this:
Column 7 represents the % of androgenic efficacy in rat prostate, expressed in percentage of stimulation:
W is the weight of the prostate.
Column 8 represents the % of androgenic efficacy in rat seminal vesicle, expressed in percentage of stimulation:
W is the weight of the seminal vesicle.
Column 9 represents the % of androgenic efficacy in rat levator ani muscle, expressed in percentage of stimulation: […]
Immature male rats (Crl:CD(SD)Br) 22 to 24-day old were obtained from Charles-River, Inc. (St-Constant, Quebec, Canada) and housed up to 5 per cage in plastic bins in a temperature (23±1° C.)— and light (12 h light/day, lights on at 7h15)— controlled environment. The rats were fed rodent chow and tap water ad libitum. The day following their arrival, the animals were orchidectomized (CX) under Isoflurane anesthesia via scrotal route and randomly assigned to groups of 5 animals.
To evaluate the antiandrogenic activity, tested compounds were administered subcutaneously or orally once daily at a dose of 0.5 mg/animal for antiandrogenitic activity or 0.2 mg/animal for androgenic activity for 7 days (SD 1 to 7). Compounds were solubilized (when possible) in dimethylsulfoxide (DMSO, 10% final concentration) and administered as suspension in 0.4% methylcellulose. […] One group of animals received the antiandrogen Flutamide as reference. The animals were killed by cervical dislocation under isoflurane anesthesia on the 8th morning following castration. The ventral prostate and seminal vesicles were rapidly dissected and weighed.
3. Calculations and Statistical Analysis
W is the weight of the prostate, the seminal vesicle or levator ani.

For assay [4], the system named is sebaceous glands of the left ear. Kind of assay: Topical antiandrogenic activity, ear sebaceous glands model in the male hamster. The format is in vivo. The conditions noted are these: 3 μg daily dose for 14 days. The procedure: Column 5 represents the percentage of inhibition of the area of the sebaceous glands of the left ear of the treated animals versus the area of the sebaceous glands of the left ear of the control animals. A 3 μg-daily dose for 14 days of tested compound dissolved in ten μL solution of ethanol: propylene Glycol (1:1; v: v) applied onto a region between the two cartilage ridges of the ventral surface of left pinna.
D—In vivo Assessment of Topical Antiandrogenic Activity
The antiandrogenic activity of compounds for topical use was determined using the ear sebaceous glands model in the male hamster.
Male Golden Syrian Hamsters (SYR) of 110-120 g were obtained from Harlan Sprague-Dawley (Madison, USA) and housed up to 2 per plastic cage in a temperature (22±3° C.) and light (12 h light/day, lights on at 7h15)-controlled environment. The hamsters were fed with Certified Rodent Diet 5002 (pellet) and had access to tap water ad libitum. […]
The total area of the sebaceous glands (μm^2) in each examined field was calculated by the Image Analyser. We also measured the total area, which has the length of 0.953 mm and the height between stratum granulosum and the cartilage. […] Thus, for each ear, two sections were cut and two fields from each section were analyzed. The total of the four readings was averaged and the mean standard error of the mean was calculated by the image analyzer. […]

Setting [5] is: read-out: Shionogi Antiandrogenic Activity IC50, Table 3, agonist reported when compound stimulates the cells.
The mark [6] stands for this setting: sc, Table 3, s.c (marked in prostate cell), read-out: % Stimulation Lev.Ani.
Where [7] appears, read: sc, Table 3, s.c (marked in prostate cell), read-out: % Stimulation SV.
The mark [8] stands for this setting: sc, Table 3, s.c, read-out: % Stimulation Prostate.
The mark [9] stands for this setting: agonist reported when compound stimulates the cells.
Where [10] appears, read: po, Table 3, p.o (marked in prostate cell), read-out: % Stimulation Lev.Ani.
Setting [11] is: po, Table 3, p.o (marked in prostate cell), read-out: % Stimulation SV.
[12] abbreviates: po, Table 3, p.o, read-out: % Stimulation Prostate.

For `Cc1c(N2C(=O)C(C)(C)N(CCCOc3ccc(CNC(C)C)cc3)C2=S)ccc(C#N)c1Cl` [EM-7198], the IC50 in assay [1] (setting [5]) was 10 nM. Besides, the “Human Androgen Receptor Binding (%) RBA R1881 = 100” value on Human Androgen Receptor (Table 3) was 44%. Also, the “% Inhibition Prostate” value in assay [2] (s.c) came out at 15 s.c %. For the same compound, the change in vivo at 0.2 mg in assay [3] (setting [6]) was determined as 182%; in assay [3] (setting [7]), 106%; in assay [3] (setting [8]), 65%.
In the case of `Cc1c(N2C(=O)C(C)(C)N(CCCOc3ccc(CN(C)C)cc3)C2=S)ccc(C#N)c1Cl` [EM-7298], in assay [1] (setting [5]), the IC50 was found to be 8.2 nM. On Human Androgen Receptor (Table 3), the “Human Androgen Receptor Binding (%) RBA R1881 = 100” value is reported as 61%. Besides, the “% Inhibition Lev.Ani” value in assay [2] (s.c (marked in prostate cell)) is reported as 14%. Further, the “% Inhibition Prostate” value in assay [2] (s.c) came out at 36 s.c %. The change in vivo at 0.2 mg was 103% in assay [3] (setting [6]), 29% in assay [3] (setting [7]) and 33% in assay [3] (setting [8]).
In the case of `CCC(c1ccc(OCCC2(O)CCN(c3ccc(C#N)c(C(F)(F)F)c3)CC2)cc1)N1CCCC1` (centres unmarked) [EM-7893, 4-(4-{2-[4-(1-propyl-pyrolidine)-phenoxy]-ethyl}-4-hydroxy-piperidin-1-yl)-2-trifluoromethyl-benzonitrile], the IC50 in assay [1] (read-out: Shionogi Antiandrogenic Activity IC50, Table 2) amounted to 5.1 nM; in assay [1] (read-out: Shionogi Antiandrogenic Activity IC50, Table 4), 5.1 nM. The “Human Androgen Receptor Binding (%) RBA R1881 = 100” value at Human Androgen Receptor (Table 2) and on Human Androgen Receptor (Table 4) was 10.3% each time. For the same compound, the inhibition in vivo at 0.5 mg in assay [2] (read-out: Lev Ani % inhibition, Table 2, levator ani) came to 26%; in assay [2] (read-out: Prostate % inhibition, Table 2), 6%; in assay [2] (read-out: SV % inhibition, Table 2, seminal vesicle) it was 38%. In addition, in assay [4], the “Hamster Topical 3 μg dose % inhibition vs cx (area of sebaceous glands of the left ear)” value came to 47%.
For the compound `Cc1cc(CN2CCOCC2)ccc1OCCCN1C(=S)N(c2ccc(C#N)c(Cl)c2C)C(=O)C1(C)C` [EM-8255], the “Shionogi Antiandrogenic Activity IC50” value in assay [1] (setting [9]) is on record as “Partial agonist”. In addition, the “Human Androgen Receptor Binding (%) RBA R1881 = 100” value at Human Androgen Receptor (Table 3) amounted to 76%. Besides, the “% Inhibition Prostate” value in assay [2] (s.c) came out at 17 s.c %. Besides, the change in vivo at 0.2 mg turned out to be 80% in assay [3] (setting [6]), 31% in assay [3] (setting [7]) and 32% in assay [3] (setting [8]).
For the compound `Cc1c(N2C(=O)C(C)(C)N(CCCOc3ccc(S(C)(=O)=O)cc3)C2=S)ccc(C#N)c1Cl` [EM-8260, 4-(3-{3-[4-(1-methylsulfonyl)-phenoxy]-propyl}-4,4-dimethyl-5-oxo-2-thioxo-imidazolidin-1-yl)-2-chloro-3-methyl-benzonitrile], the “Shionogi Antiandrogenic Activity IC50” value in assay [1] (setting [9]) is on record as “Partial agonist”. In addition, the “Human Androgen Receptor Binding (%) RBA R1881 = 100” value on Human Androgen Receptor (Table 3) stood at 17%. Also, the “% Inhibition Lev.Ani” value in assay [2] (p.o (marked in prostate cell)) amounted to 24%. Also, in assay [2] (p.o (marked in prostate cell)), the “% Inhibition SV” value was 54%. Besides, in assay [2] (p.o), the “% Inhibition Prostate” value worked out at 40 p.o %. Also, the change in vivo at 0.2 mg in assay [3] (setting [10]) turned out to be 74%; in assay [3] (setting [11]) it was 28%; in assay [3] (setting [12]), 27%.
For `CCS(=O)(=O)c1ccc(OCCCN2C(=S)N(c3ccc(C#N)c(Cl)c3C)C(=O)C2(C)C)cc1` [EM-8261], the “Shionogi Antiandrogenic Activity IC50” value in assay [1] (setting [9]) is given as “Partial agonist”. At Human Androgen Receptor (Table 3), the “Human Androgen Receptor Binding (%) RBA R1881 = 100” value turned out to be 32%. Also, in assay [2] (p.o (marked in prostate cell)), the “% Inhibition Lev.Ani” value stood at 8%. Moreover, the “% Inhibition SV” value in assay [2] (p.o (marked in prostate cell)) amounted to 25%. Also, the “% Inhibition Prostate” value in assay [2] (p.o) is on record as 38 p.o %. The change in vivo at 0.2 mg in assay [3] (setting [10]) worked out at 82%; in assay [3] (setting [11]), 26%; in assay [3] (setting [12]), 41%.
For `CC(=O)Nc1ccc(OCCCN2C(=S)N(c3ccc(C#N)c(Cl)c3C)C(=O)C2(C)C)cc1` [EM-8362], the “Shionogi Antiandrogenic Activity IC50” value in assay [1] (setting [9]) is on record as “Partial agonist”. Moreover, the “Human Androgen Receptor Binding (%) RBA R1881 = 100” value at Human Androgen Receptor (Table 3) was 66%. The values for the change in vivo at 0.2 mg in assay [3] (setting [10]), in assay [3] (setting [11]) and in assay [3] (setting [12]) were 105%, 43% and 33%, respectively.
For `Cc1c(N2C(=O)C(C)(C)N(CCCOc3ccc(S(=O)(=O)C(C)C)cc3)C2=S)ccc(C#N)c1Cl` [EM-8363] the same measures were “Partial agonist”, 52%, 85%, 24% and 29%.

In general, IC50 refers to the concentration that inhibits the measured activity by half.
